# Measured values as given in patent US20240197726A1, “NOVEL TETRAHYDROISOQUINOLINE ALKALOID COMPOUND CONTAINING MACROCYCLE” (THE UNIVERSITY OF TOKYO, priority 2021, published 2024).
# Read-outs that look alike come from different tables or passages of the source.
# Experiments:
# Assay type in all cases: cell-based
# [1] = test system: HCC2998 colorectal cancer cells; experiment: antitumor activity, sulforhodamine B cell growth assay, HCC2998
# Outline: (§1)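 Cells were seeded in RPMI 1640 with 5% FBS, allowed to adhere overnight, then exposed to compound for 48 h. Growth was measured by sulforhodamine B staining at 525 nm, with a time-zero (T0) reading. Log GI50, TGI and LC50 were taken where % growth crossed 50, 0 and −50%.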
# [2] = test system: SNB-78 central nervous system cancer cells; experiment: antitumor activity, sulforhodamine B cell growth assay, SNB-78
# Outline: as §1
# [3] = test system: DU-145 prostate cancer cells; experiment: antitumor activity, sulforhodamine B cell growth assay, DU-145
# Outline: as §1
# [4] = test system: HBC-5 breast cancer cells; experiment: antitumor activity, sulforhodamine B cell growth assay, HBC-5
# Outline: as §1
# SK-OV-3 cancer cells = experiment: antitumor activity, sulforhodamine B cell growth assay, SK-OV-3
# Outline: as §1
# [5] = test system: MDA-MB-231 breast cancer cells; experiment: antitumor activity, sulforhodamine B cell growth assay, MDA-MB-231
# Outline: as §1
# ACHN kidney cancer cells = experiment: antitumor activity, sulforhodamine B cell growth assay, ACHN
# Outline: as §1
# [6] = test system: SF-268 central nervous system cancer cells; experiment: antitumor activity, sulforhodamine B cell growth assay, SF-268
# Description: (§2) The THIQ compound containing a macrocyclic structure of the present invention was administered to various cancer cell lines, and the antitumor activity (Go value) was observed. Specifically, verification was performed according to the literature (Yamori, T.; Matsunaga, A.; Sato, S.; Yamazaki, K.; Komi, A.; Ishizu, K. et al. Cancer Res. 1999, 59, 4042) by the following procedure.
# (§3) Cells were plated at an appropriate density in a 96-well plate in RPMI 1640 together with 5% fetal bovine serum, and adhered overnight. The cells were exposed to a drug for 48 hours. Then, according to the sulforhodamine B assay described by Skehan et al (Skehan P., Storeng R., Scudiero D., Monks A., McMahon J., Vistica D., Warren J. T., Bokesch H., Kenney S., Boyd M. R. J Natl. Cancer Inst, 1990, 82, 1107-1112), the cell growth rate was measured. The absorbance of the control well (C) and the test well (T) was measured at 525 nm. In addition, the time at which the drug was added was set as time 0, and the absorbance for the test well (T0) was measured. Using these measured values, the cell growth inhibitory effect (% growth=PG) was calculated by the following formula at each concentration of the drug.
# (§4) (T<T0): PG=100×[(T−T0)/T]
# (§5) The PG values determined above for each cell line were plotted against the concentration (logarithm) on a semi-logarithmic graph, and summarized for each visceral cancer. Concentrations at which the dose-response curve of each cell line crossed the horizontal line of PG=50%, 0%, or −50% were calculated. These concentrations were defined as Log GI50, Log TGI, and Log LC50. Actually, using two data points of the drug concentration before and after crossing each horizontal line, the drug concentration (logarithmic value) at the intersection of the straight line connecting the two points and the horizontal line for each PG was calculated.
# DMS273 lung cancer cells = experiment: antitumor activity, sulforhodamine B cell growth assay, DMS273
# Outline: as §1
# [7] = test system: HBC-4 breast cancer cells; experiment: antitumor activity, sulforhodamine B cell growth assay, HBC-4
# Outline: as §1
# [8] = test system: NCI-H460 lung cancer cells; experiment: antitumor activity, sulforhodamine B cell growth assay, NCI-H460
# Outline: as §1
# LOX-IMVI melanoma cells = experiment: antitumor activity, sulforhodamine B cell growth assay, LOX-IMVI
# Outline: as §1
# [9] = test system: U251 central nervous system cancer cells; experiment: antitumor activity, sulforhodamine B cell growth assay, U251
# Outline: as §1
# [10] = test system: NCI-H522 lung cancer cells; experiment: antitumor activity, sulforhodamine B cell growth assay, NCI-H522
# Outline: as §1
# [11] = test system: OVCAR-5 cervical cancer cells; experiment: antitumor activity, sulforhodamine B cell growth assay, OVCAR-5
# Description: as §2, §3, §4, §5
# [12] = test system: RXF-631L kidney cancer cells; experiment: antitumor activity, sulforhodamine B cell growth assay, RXF-631L
# Description: as §2, §3, §4, §5
# [13] = test system: HT-29 colorectal cancer cells; experiment: antitumor activity, sulforhodamine B cell growth assay, HT-29
# Outline: as §1
# [14] = test system: NCI-H23 lung cancer cells; experiment: antitumor activity, sulforhodamine B cell growth assay, NCI-H23
# Description: as §2, §3, §4, §5
# OVCAR-4 cancer cells = experiment: antitumor activity, sulforhodamine B cell growth assay, OVCAR-4
# Description: as §2, §3, §4, §5
# [15] = test system: various cancer cell lines; experiment: Verification of antitumor activity, whole panel of cancer cell lines; details: in words, compared with Cyanosafracin B
# Description: as §2, §3, §4, §5
# [16] = test system: SF-295 central nervous system cancer cells; experiment: antitumor activity, sulforhodamine B cell growth assay, SF-295
# Outline: as §1
# [17] = test system: HCT-15 colorectal cancer cells; experiment: antitumor activity, sulforhodamine B cell growth assay, HCT-15
# Outline: as §1
# [18] = Homo sapiens, HCC 2998, HCC2998 colorectal cancer cells, read-out: antitumor activity GI50 value: 50% growth inhibitory concentration
# [19] = Homo sapiens, SNB-78 central nervous system cancer cells, read-out: antitumor activity GI50 value: 50% growth inhibitory concentration
# [20] = Homo sapiens, DU-145 prostate cancer cells, read-out: antitumor activity GI50 value: 50% growth inhibitory concentration
# [21] = HBC5, HBC-5 breast cancer cells, read-out: antitumor activity GI50 value: 50% growth inhibitory concentration
# [22] = Homo sapiens, SK-OV-3 cervical cancer cells, read-out: antitumor activity GI50 value: 50% growth inhibitory concentration
# [23] = Homo sapiens, MDA-MB-231 breast cancer cells, read-out: antitumor activity GI50 value: 50% growth inhibitory concentration
# [24] = Homo sapiens, ACHN kidney cancer cells, read-out: antitumor activity GI50 value: 50% growth inhibitory concentration
# [25] = Homo sapiens, SF-268 central nervous system cancer cells, read-out: antitumor activity GI50 value: 50% growth inhibitory concentration
# [26] = Homo sapiens, DMS-273, DMS273 lung cancer cells, read-out: antitumor activity GI50 value: 50% growth inhibitory concentration
# [27] = HBC4, HBC-4 breast cancer cells, read-out: antitumor activity GI50 value: 50% growth inhibitory concentration
# [28] = Homo sapiens, NCI-H460, NCl--H460 lung cancer cells, read-out: antitumor activity GI50 value: 50% growth inhibitory concentration
# [29] = Homo sapiens, LOX-IMVI melanoma cells, read-out: antitumor activity GI50 value: 50% growth inhibitory concentration
# [30] = Homo sapiens, U-251, U251 central nervous system cancer cells, read-out: antitumor activity GI50 value: 50% growth inhibitory concentration
# [31] = Homo sapiens, NCI-H522, NCl-H522 lung cancer cells, read-out: antitumor activity GI50 value: 50% growth inhibitory concentration
# [32] = Homo sapiens, OVCAR-5 cervical cancer cells, read-out: antitumor activity GI50 value: 50% growth inhibitory concentration
# [33] = RXF-631L kidney cancer cells, read-out: antitumor activity GI50 value: 50% growth inhibitory concentration
# [34] = Homo sapiens, HT-29 colorectal cancer cells, read-out: antitumor activity GI50 value: 50% growth inhibitory concentration
# [35] = Homo sapiens, NCI-H23, NCl-H23 lung cancer cells, read-out: antitumor activity GI50 value: 50% growth inhibitory concentration
# [36] = Homo sapiens, OVCAR-4 cervical cancer cells, read-out: antitumor activity GI50 value: 50% growth inhibitory concentration
# [37] = Homo sapiens, SF-295 central nervous system cancer cells, read-out: antitumor activity GI50 value: 50% growth inhibitory concentration
# [38] = Homo sapiens, HCT-15 colorectal cancer cells, read-out: antitumor activity GI50 value: 50% growth inhibitory concentration
smiles,measurement,setting,value
C#CCN1C(=O)[C@H]2[C@@H]3C=C(COc4c(C)c5c(c6c4C[C@H]4[C@H]7c8c(cc(C)c(OC)c8O)C[C@@H]([C@H](C#N)N4C6CNC(=O)[C@H](C)NC(=O)OC3)N7C)OCO5)C[C@H]2C1=O [Compound 47],GI50,[1]; [18],410 nM
same,GI50,[2]; [19],260 nM
same,GI50,[3]; [20],3900 nM
same,GI50,[4]; [21],300 nM
same,GI50,SK-OV-3 cancer cells; [22],3900 nM
same,GI50,[5]; [23],180 nM
same,GI50,ACHN kidney cancer cells; [24],2600 nM
same,GI50,[6]; [25],620 nM
same,GI50,DMS273 lung cancer cells; [26],450 nM
same,GI50,[7]; [27],200 nM
same,GI50,[8]; [28],630 nM
same,GI50,LOX-IMVI melanoma cells; [29],160 nM
same,GI50,[9]; [30],350 nM
same,GI50,[10]; [31],29 nM
same,GI50,[11]; [32],2800 nM
same,GI50,[12]; [33],2100 nM
same,GI50,[13]; [34],490 nM
same,GI50,[14]; [35],850 nM
same,GI50,OVCAR-4 cancer cells; [36],3500 nM
same,antitumor activity,[15],better antitumor activity than Cyanosafracin B
same,GI50,[16]; [37],1800 nM
same,GI50,[17]; [38],2200 nM
C#CCN1C/C=C/COc2c(C)c3c(c4c2C[C@H]2[C@H]5c6c(cc(C)c(OC)c6O)C[C@@H]([C@H](C#N)N2C4CNC(=O)[C@@H]1C)N5C)OCO3 [Compound 44],GI50,[1]; [18],< 10 nM
same,GI50,[2]; [19],< 10 nM
same,GI50,[3]; [20],< 10 nM
same,GI50,[4]; [21],< 10 nM
same,GI50,SK-OV-3 cancer cells; [22],< 10 nM
same,GI50,[5]; [23],< 10 nM
same,GI50,ACHN kidney cancer cells; [24],< 10 nM
same,GI50,[6]; [25],< 10 nM
same,GI50,DMS273 lung cancer cells; [26],< 10 nM
same,GI50,[7]; [27],< 10 nM
same,GI50,[8]; [28],< 10 nM
same,GI50,LOX-IMVI melanoma cells; [29],< 10 nM
same,GI50,[9]; [30],< 10 nM
same,GI50,[10]; [31],< 10 nM
same,GI50,[11]; [32],< 10 nM
same,GI50,[12]; [33],< 10 nM
same,GI50,[13]; [34],< 10 nM
same,GI50,[14]; [35],< 10 nM
same,GI50,OVCAR-4 cancer cells; [36],< 10 nM
same,antitumor activity,[15],better antitumor activity than Cyanosafracin B
same,GI50,[16]; [37],< 10 nM
same,GI50,[17]; [38],< 10 nM
C=C1/C=C/CN[C@@H](C)C(=O)NCC2c3c(c(c(C)c4c3OCO4)OC1)C[C@H]1[C@H]3c4c(cc(C)c(OC)c4O)C[C@@H]([C@H](C#N)N21)N3C [Compound 33],GI50,"[1]; HCC2998, drug exposure 48 hours, read-out: GI50 value: 50% growth inhibitory concentration",140 nM
same,GI50,"[2]; SNB-78, drug exposure 48 hours, read-out: GI50 value: 50% growth inhibitory concentration",83 nM
same,GI50,"[3]; DU-145, drug exposure 48 hours, read-out: GI50 value: 50% growth inhibitory concentration",370 nM
same,GI50,"[4]; HBC-5, drug exposure 48 hours, read-out: GI50 value: 50% growth inhibitory concentration",40 nM
same,GI50,"SK-OV-3 cancer cells; SK-OV-3, drug exposure 48 hours, read-out: GI50 value: 50% growth inhibitory concentration",500 nM
same,GI50,"[5]; MDA-MB-231, drug exposure 48 hours, read-out: GI50 value: 50% growth inhibitory concentration",52 nM
same,GI50,"ACHN kidney cancer cells; ACHN, drug exposure 48 hours, read-out: GI50 value: 50% growth inhibitory concentration",260 nM
same,GI50,"[6]; SF-268, drug exposure 48 hours, read-out: GI50 value: 50% growth inhibitory concentration",110 nM
same,GI50,"DMS273 lung cancer cells; DMS273, drug exposure 48 hours, read-out: GI50 value: 50% growth inhibitory concentration",140 nM
same,GI50,"[7]; HBC-4, drug exposure 48 hours, read-out: GI50 value: 50% growth inhibitory concentration",32 nM
same,GI50,"[8]; NCI-H460, drug exposure 48 hours, read-out: GI50 value: 50% growth inhibitory concentration",260 nM
same,GI50,"LOX-IMVI melanoma cells; LOX-IMVI, drug exposure 48 hours, read-out: GI50 value: 50% growth inhibitory concentration",31 nM
same,GI50,"[9]; U251, drug exposure 48 hours, read-out: GI50 value: 50% growth inhibitory concentration",55 nM
same,GI50,"[10]; NCI-H522, drug exposure 48 hours, read-out: GI50 value: 50% growth inhibitory concentration",25 nM
same,GI50,"[11]; OVCAR-5, drug exposure 48 hours, read-out: GI50 value: 50% growth inhibitory concentration",310 nM
same,GI50,"[12]; RXF-631L, drug exposure 48 hours, read-out: GI50 value: 50% growth inhibitory concentration",300 nM
same,GI50,"[13]; HT-29, drug exposure 48 hours, read-out: GI50 value: 50% growth inhibitory concentration",86 nM
same,GI50,"[14]; NCI-H23, drug exposure 48 hours, read-out: GI50 value: 50% growth inhibitory concentration",93 nM
same,GI50,"OVCAR-4 cancer cells; OVCAR-4, drug exposure 48 hours, read-out: GI50 value: 50% growth inhibitory concentration",400 nM
same,antitumor activity,[15],better antitumor activity than Cyanosafracin B
same,GI50,"[16]; SF-295, drug exposure 48 hours, read-out: GI50 value: 50% growth inhibitory concentration",270 nM
same,GI50,"[17]; HCT-15, drug exposure 48 hours, read-out: GI50 value: 50% growth inhibitory concentration",400 nM
